Values of other authors as cited in US20260102372A1, “NEW FORMULATIONS FOR MENTAL DISORDERS OR MENTAL ENHANCEMENT” (TACTOGEN INC, priority 2023, published 2026).

Columns and labels:
[1] = molecular target: cytochrome p450 isozyme 2D6 (CYP2D6) (Homo sapiens, UniProt P10635)
[2] = nonhuman animals
[3] = not given; remark: listed apart in the source
[4] = pooled Phase 2 trials
[5] = test system: PTSD; details: MDMA arm

cytochrome p450 isozyme 2D6 (CYP2D6), sequence (P10635 whole entry): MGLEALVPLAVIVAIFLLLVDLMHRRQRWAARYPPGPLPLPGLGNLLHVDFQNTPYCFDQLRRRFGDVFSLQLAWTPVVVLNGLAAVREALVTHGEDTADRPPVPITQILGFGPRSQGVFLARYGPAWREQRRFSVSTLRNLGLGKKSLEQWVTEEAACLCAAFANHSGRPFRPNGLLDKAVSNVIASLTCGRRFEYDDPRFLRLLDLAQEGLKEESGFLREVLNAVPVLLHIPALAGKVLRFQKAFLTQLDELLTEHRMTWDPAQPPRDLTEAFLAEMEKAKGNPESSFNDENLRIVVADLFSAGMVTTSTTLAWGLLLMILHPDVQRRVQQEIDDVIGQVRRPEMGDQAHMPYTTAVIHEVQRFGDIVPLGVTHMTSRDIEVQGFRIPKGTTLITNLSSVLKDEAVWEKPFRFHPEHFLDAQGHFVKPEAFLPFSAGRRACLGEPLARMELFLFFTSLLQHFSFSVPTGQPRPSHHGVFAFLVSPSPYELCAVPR

In the case of `CNC(C)Cc1ccc2c(c1)OCO2` (stereo not shown) [MDMA, [1-(2H-1,3-benzodioxol-5-yl)propan-2-yl](methyl)amine], the CYP2D6 interaction [1] is listed as “both a substrate and inhibitor”, the half-life in plasma is listed as “seven to nine” and the “markers of serotonergic functioning (brain serotonin, tryptophan hydroxylase, serotonin transporter density)” value [2] is listed as “decreases”. The “measures of oxidative stress” value [2] was “increases”, the “duration of acute psychological and emotional effects (average)” value ([3]; after 75 or 125 mg MDMA, standard deviation 1.3 hours (Vizeli & Liechti 2017)) was 4.2 hours and the “time by which acute emotional effects have largely resolved” value ([3]; after administration of MDMA) was ≤ 8 h. For the same compound, the “nausea occurred in participants” value ([4]; 29 of 72 participants (Mithoefer et al. 2019)) was 40.3%, the “anxiety occurred in participants” value ([4]; 52 of 72 participants (Mithoefer et al. 2019)) was 72.2% and the “participants with sufficient improvement that they were no longer diagnosable with PTSD” value ([5]; first of two Phase 3 trials (Mitchell et al. 2021)) was “one-third”. The participants improved ([5]; first of two Phase 3 trials, MDMA-assisted therapy for PTSD (Mitchell et al. 2021)) was 88%.
